Data reported in publication PMC13252604, “First Generation Proteolysis Targeting Chimeras (PROTACs) for the Treatment of Progeria” (Advanced Science, 2026).

Target: T1, progerin (Homo sapiens, UniProt P02545)
T1 construct: endogenous in cells; host or cells: HGADFN167 human HGPS fibroblasts (Progeria Research Foundation)
T1 sequence (P02545 1-614 isoform P02545-6): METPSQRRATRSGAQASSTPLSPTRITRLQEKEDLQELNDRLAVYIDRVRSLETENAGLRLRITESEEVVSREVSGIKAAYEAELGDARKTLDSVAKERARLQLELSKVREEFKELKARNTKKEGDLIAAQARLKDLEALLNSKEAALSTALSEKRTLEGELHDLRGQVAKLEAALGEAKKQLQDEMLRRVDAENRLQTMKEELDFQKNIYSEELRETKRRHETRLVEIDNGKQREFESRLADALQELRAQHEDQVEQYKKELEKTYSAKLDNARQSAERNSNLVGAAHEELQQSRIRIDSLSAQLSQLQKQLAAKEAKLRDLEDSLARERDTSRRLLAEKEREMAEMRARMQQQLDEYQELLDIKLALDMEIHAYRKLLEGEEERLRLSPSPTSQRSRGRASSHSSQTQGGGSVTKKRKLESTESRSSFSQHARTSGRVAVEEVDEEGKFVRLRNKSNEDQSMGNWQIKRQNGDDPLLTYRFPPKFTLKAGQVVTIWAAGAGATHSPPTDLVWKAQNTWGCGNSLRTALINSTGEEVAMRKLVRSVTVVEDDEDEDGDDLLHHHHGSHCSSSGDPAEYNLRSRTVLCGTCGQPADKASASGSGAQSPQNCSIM
Assay: Progerin quantification, immunoblot in human Lmna^G608G/G608G fibroblasts
Format: cell-based
Conditions: human Lmna^G608G/G608G patient-derived fibroblasts, vs vehicle
Description: FIGURE 6 (A) Representative cropped immunoblots and progerin quantification in human Lmna^G608G/G608G fibroblasts. MW, molecular weight (in kDa) markers. […] (B) PROTAC 2 increases cell proliferation (upper panels) and decreases the number of misshapen nuclei (lower panels). White arrows highlight selected misshapen nuclei. (C) PROTAC 2 decreases senescence‐associated β‐galactosidase (SA‐βgal) activity, interleukin (IL) 6, p16 and p21 senescent markers. Bar graphs show mean±sem of 2 (SA‐βgal and p21) or 3 (IL‐6 and p16) independent experiments performed in triplicate. (D) PROTAC 2 decreases phosphorylated histone 2AX (pH2AX) and increases trimethylated histone 3 (H3K9Me3) levels. (E) PROTAC 2 increases the oxygen consumption rate (OCR), ATP production and the number of healthy mitochondria in human progeroid cells. […] Data were analysed using one‐way ANOVA followed by Dunnett's post–hoc test vs vehicle (panel A) or vs G608G cells (panels B‐E). ^*, p < 0.05; ^**, p < 0.01; ^***, p < 0.001; ^****, p < 0.0001. […]
was saturated at 100 ppm. Relative STD effects were calculated by comparing the intensity of the signals in the STD-NMR spectrum with signal intensities of the reference spectrum (off-resonance). The STD signal with the highest intensity was set to 100%, a nd other STD signals were calculated accordingly. […]
Cell viability was assessed as previously described.[64] […]

| SMILES | progerin levels (immunoblot quantification) |
| --- | --- |
| CC1(C)Oc2cc3oc(=O)ccc3cc2C[C@@H]1OC(=O)CCCCCNc1cccc2c1C(=O)N(C1CCC(=O)NC1=O)C2=O (some centres unmarked) [compound 2] | the most potent in human cells |
| CC1(C)Oc2cc3oc(=O)ccc3cc2C[C@@H]1OC(=O)CCCCC(=O)Oc1ccc2c(c1)CCCN2C(=O)CCl [compound 12] | exhibited significant activity in human cells |
